Measurements: patent US10316039B2, “P2X3 and/or P2X2/3 compounds and methods” (Asana Biosciences, LLC, priority 2013, dated 2019)

Test system: thermal hyperalgesia induced by intraplantar Complete Freund's Adjuvant
Test: CFA-induced inflammatory thermal hyperalgesia (Hargreaves test)
Assay type: in vivo
Conditions: rat, 60 mg/kg, dosed 48 h after footpad CFA
Experimental: FIG. 2 illustrates the antihyperalgesic effects of the compound of example 22 in a rat model of inflammatory thermal hyperalgesia induced by an intraplantar injection of Complete Freund's Adjuvant (CFA). Thermal hyperalgesia is manifest as a reduction in the time for foot-withdrawal during irradiation with a painful thermal stimulus. The compound of example 22 was administered at a dose of 60 mg/kg, 48 h after footpad injection of CFA and produced a substantial reversal (77% and 68%) of thermal hyperalgesia when assessed at 1 h and 2 h post-dose, respectively.
FIG. 5 illustrates the antihyperalgesic effects of the compound of example 38 in a rat model of inflammatory thermal hyperalgesia induced by an intraplantar injection of CFA. Thermal hyperalgesia is manifest as a reduction in the time for foot-withdrawal during irradiation with a painful thermal stimulus. The compound of example 38 was administered at a dose of 60 mg/kg, 48 h after footpad injection of CFA and produced a substantial reversal (50%) of thermal hyperalgesia when assessed at 1 h post-dose.
FIG. 6 illustrates the antihyperalgesic effects of the compound of example 52 in a rat model of inflammatory thermal hyperalgesia induced by an intraplantar injection of CFA. Thermal hyperalgesia is manifest as a reduction in the time for foot-withdrawal during irradiation with a painful thermal stimulus. The compound of example 52 was administered at a dose of 60 mg/kg, 48 h after footpad injection of CFA and produced a substantial reversal (39%) of thermal hyperalgesia when assessed at 1 h post-dose.
Male Sprague Dawley rats of young adult age group and body weight range of 180-200 g were included in the study. Animals were housed under a 12 h light/dark cycle with food and water ad libitum. The animals underwent acclimatization with the observation chambers of the Hargreaves' apparatus for two days, twice daily for 45-60 min each time prior to initiation of study. Animals were also habituated to the apparatus for 15-30 min before each testing. Thermal hyperalgesia was assessed using the rat plantar test (Ugo Basile, Italy) following a modified method of Hargreaves (1988, “A new and sensitive method for measuring thermal nociception in cutaneous hyperalgesia”, Pain 32: 77-88). […]
Following basal readout of PWL values to the thermal stimulus (PWL measurements described previously), 50 μL of complete Freund's Adjuvant (CFA—1 mg/mL suspension—Sigma, USA, Cat # F5881) was injected subcutaneously into the plantar surface of the right hind (ipsilateral) paw of animals under light isoflurane anesthesia. […]
Next day (day 1) after 20-22 h of CFA injection, PWL of animals were recorded. Mean of three readings are taken as PWL recording of ipsilateral paw of each animal for pre and post CFA basal readout. […]

Compound | reversal of thermal hyperalgesia (assessed 1 h post-dose) [%] | reversal of thermal hyperalgesia (assessed 2 h post-dose) [%]
CCc1cnnn1-c1cc(C(=O)NCc2ccc(C)nc2)cn2c(-c3ccc(C)s3)cnc12 [Example 22] | 77 | 68
C[C@H](NC(=O)c1cc(-n2nncc2C(F)F)c2ncc(-c3ccc(Cl)s3)n2c1)c1nnc[nH]1 [Example 38] | 50 | 
CC[C@H](NC(=O)c1cc(-n2nncc2C(F)F)c2ncc(-c3ccc(C)s3)n2c1)c1nnc[nH]1 [Example 52] | 39 | 
